Several values for one entry are separate records, joined by “and”; a condition that tells them apart may be missing. Equal entries are not always repeated.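 Growth conditions: 96-well plates. Treatment: test compound, 48 hours, 5 concentrations. Analysis: linear interpolation between bracketing concentrations; unreached endpoints set to highest concentration. GI50 is the concentration that inhibits growth by half. TGI: total growth inhibition.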
Tests used:
Assay in all cases: NCI tumour cell line growth inhibition, 48 h
[1] = tested on: SNB-75 CNS
[2] = tested on: MALME-3M melanoma
[3] = tested on: NCI/ADR-RES ovarian
[4] = tested on: HCC-2998 colon
[5] = tested on: MDA-N
[6] = tested on: RXF 393 renal
[7] = tested on: SW-620 colon
[8] = tested on: NCI-H226 lung
[9] = tested on: RPMI-8226 leukemia
[10] = tested on: NCI-H460 lung
[11] = tested on: HOP-92 NSCLC
[12] = tested on: BT-549 breast
[13] = tested on: NCI-H522 lung
[14] = tested on: COLO 205 colon
[15] = tested on: OVCAR-4 ovarian
[16] = tested on: UACC-257 melanoma
[17] = tested on: UO-31 renal
[18] = tested on: HOP-62 NSCLC
[19] = tested on: MDA-MB-231 breast
[20] = tested on: SF-295 CNS
[21] = tested on: HCT-15 colon
[22] = tested on: 786-0 renal
[23] = tested on: CAKI-1 renal
[24] = tested on: SR leukemia
[25] = tested on: SK-MEL-28 melanoma
[26] = tested on: EKVX NSCLC
[27] = tested on: SF-268 CNS
[28] = tested on: UACC-62 melanoma
[29] = tested on: OVCAR-8 ovarian
[30] = tested on: SNB-19 CNS
[31] = tested on: SK-OV-3 ovarian
[32] = tested on: IGROV1 ovarian
[33] = tested on: U251 CNS
[34] = tested on: SF-539 CNS
[35] = tested on: A549 NSCLC
[36] = tested on: MCF7 breast
[37] = tested on: K-562 leukemia
[38] = tested on: LOX IMVI melanoma
[39] = tested on: ACHN renal
[40] = tested on: SK-MEL-2 melanoma
[41] = tested on: KM12 colon
[42] = tested on: CCRF-CEM leukemia
[43] = tested on: TK-10 renal
[44] = tested on: SK-MEL-5 melanoma
[45] = tested on: HT29 colon
[46] = tested on: MDA-MB-435
[47] = tested on: OVCAR-5 ovarian
[48] = tested on: HS 578T breast
[49] = tested on: A498 renal
[50] = tested on: NCI-H23 lung
[51] = tested on: HL-60(TB) leukemia
[52] = tested on: HCT-116 colon
[53] = tested on: T-47D breast
[54] = tested on: MOLT-4 leukemia
[55] = tested on: DU-145 prostate
[56] = tested on: OVCAR-3 ovarian
[57] = tested on: M14 melanoma

With CC(C)[C@]12O[C@H]1[C@@H]1O[C@]13[C@]1(O[C@H]1C[C@H]1C4=C(CC[C@@]13C)C(=O)OC4)[C@@H]2O the GI50 [1] was 16.8 nM, the TGI [1] was 35 nM and 39.8 nM and the GI50 [2] was 18 nM. The TGI [2] was 32.8 nM and 46.7 nM, the TGI [3] was 92.2 nM and the GI50 [4] was 21.2 nM. The TGI [4] was 91.2 nM and 761 nM, the TGI [5] was 23.8 nM and the GI50 [6] was 17.2 nM and < 10.7 nM. For the same compound, the TGI [6] was 35.3 nM and < 16.9 nM, the GI50 [7] was under 10 nM and the GI50 [8] was under 11 nM. The TGI [8] was 73.1 nM and 120 nM, the GI50 [9] was 3.6 nM and 11 nM and the TGI [9] was 26.5 nM and 91.5 nM. For the same compound, the GI50 [10] was under 10 nM, the TGI [10] was over 100 µM and the GI50 [11] was 20.1 nM. For the same compound, the TGI [11] was 107 nM and 80.8 nM, the GI50 [12] was 21.4 nM and < 13 nM and the TGI [12] was 178 nM and 34.7 nM. For the same compound, the GI50 [13] was 11.4 nM, the TGI [13] was 157 nM and 36.6 nM and the GI50 [14] was 11.7 nM. The TGI [14] was 21.9 nM and 36.6 nM, the GI50 [15] was 17.4 nM and the GI50 [16] was 10.1 nM and 14.8 nM. For the same compound, the TGI [16] was 34.1 nM and 47.6 nM, the GI50 [17] was 18.3 nM and the TGI [17] was over 100 µM. The GI50 [18] was 24.8 nM, the GI50 [19] was 16.8 nM and the TGI [19] was 116 nM. For the same compound, the TGI [20] was 646 nM and 934 nM, the GI50 [21] was 12.2 nM and the TGI [21] was over 2930 nM. For the same compound, the GI50 [22] was 30.3 nM, the TGI [22] was over 100 µM and the GI50 [23] was 11.1 nM and < 10 nM. For the same compound, the TGI [23] was over 100 µM, the GI50 [24] was 7.13 nM and the TGI [24] was 48.8 nM. For the same compound, the GI50 [25] was 11.9 nM, the TGI [25] was 22.6 nM and 32 nM and the GI50 [26] was 16.6 nM. For the same compound, the TGI [26] was 99.4 nM and 283 nM, the TGI [27] was 241 nM and 218 nM and the GI50 [28] was 11 nM. The TGI [28] was 24.1 nM and 26 nM, the GI50 [29] was 28.5 nM and the GI50 [30] was 62.7 nM. It also gave a TGI [30] of over 100 µM, a TGI [31] of over 100 µM and a GI50 [32] of 25.7 nM. The TGI [32] was over 100 µM, the GI50 [33] was 37.9 nM and the TGI [33] was over 100 µM. For the same compound, the GI50 [34] was 14.6 nM, the TGI [34] was 26 nM and 35.8 nM and the GI50 [35] was 27.6 nM and 24.6 nM. The TGI [35] was over 100 µM, the GI50 [36] was under 10 nM and the GI50 [37] was 15.1 nM. It also gave a TGI [37] of over 100 µM, a GI50 [38] of under 10 nM and a TGI [38] of 25.1 nM. For the same compound, the GI50 [39] was 10.2 nM, the TGI [39] was over 100 µM and the GI50 [40] was 15.7 nM. For the same compound, the TGI [40] was 19.5 nM and 32.3 nM, the GI50 [41] was 102 nM and the GI50 [42] was 25.5 nM. It also gave a TGI [42] of 297 nM, a GI50 [43] of 27.8 nM and a TGI [43] of over 100 µM. The GI50 [44] was 13.1 nM, the TGI [44] was 21.3 nM and 26.5 nM and the GI50 [45] was 29 nM. For the same compound, the TGI [45] was over 100 µM, the GI50 [46] was 12.2 nM and the TGI [46] was 21.4 nM and 29.6 nM. The GI50 [47] was 32.5 nM and 28.2 nM, the TGI [47] was over 100 µM and the TGI [48] was 55.4 nM and 71.8 nM. For the same compound, the GI50 [49] was 27.4 nM, the TGI [49] was 45.4 nM and 82.8 nM and the TGI [50] was 15.6 nM. For the same compound, the GI50 [51] was under 11.1 nM, the TGI [51] was 49.5 nM and the GI50 [52] was under 10 nM. The TGI [52] was over 100 µM, the GI50 [53] was 21.1 nM and 29.2 nM and the GI50 [54] was 12.8 nM. For the same compound, the TGI [54] was 34.8 nM, the GI50 [55] was 16.3 nM and the TGI [55] was over 100 µM. For the same compound, the GI50 [56] was 19.8 nM, the TGI [56] was 93.2 nM and 377 nM and the GI50 [57] was 15.8 nM. For the same compound, the TGI [57] was 31.2 nM and 36.1 nM.

Reference: PubChem BioAssay (NCI)
